The term TGI denotes the concentration giving total growth inhibition. As usually defined, the GI50 is the concentration at which growth is held to half of that of the control.

Where “and” joins values, the source holds several entries; their conditions need not be identical. Equal values may be shown once.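 In this assay, cells in 96-well plates receive the compound at five concentrations for 48 hours. Endpoints are linearly interpolated between the surrounding concentrations. GI50 marks 50% less growth. TGI: total growth inhibition.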

What all share (assay): DTP human tumour cell line panel, 48 h
The test system of test [1] is LXFL 529 NSCLC.
Test [2] has as its system KM20L2 colon.
The subject of test [3] is M19-MEL melanoma.
In test [4] the test system is DMS 273 small cell lung.
For test [5], the system named is SNB-78 CNS.
Test [6] relates to HOP-18 NSCLC.
In test [7] the test system is XF 498 CNS.
Test [8] has as its system MCF7 breast.
The test system of test [9] is MDA-MB-435.
Test [10] relates to BT-549 breast.
The test system of test [11] is NCI/ADR-RES ovarian.
Test [12] concerns HS 578T breast.
Test [13] relates to RXF-631 renal.

With `O=c1c2ccccc2c2nc3ccccc3nc2n1C1CCCCC1`, the total growth inhibition concentration (TGI) in [1], in test [2], in test [3], in test [4] and in [5] was greater than 100 µM in each case.
With `NC(=S)N/N=C1/C(=O)N(c2ccc(Cl)cc2Cl)C(=O)C(=O)C1c1nc2ccccc2s1` (stereo not given), the TGI in [6], in test [1], in test [2], in test [3], in [7] and in test [4] was greater than 100 µM each time. The TGI in test [5] was greater than 100 µM.
In the case of `O=[N+]([O-])c1nccn1COCCF`, the TGI in test [1], in test [2], in [3], in test [7] and in test [5] was greater than 100 µM each time.
`Nc1nc2nc[nH]c2c(=O)[nH]1`: the TGI in test [6], in [1], in test [2], in test [3], in test [7] and in [4] was greater than 100 µM throughout. The compound further displayed a TGI in test [5] greater than 100 µM.
With `COc1ccc2nc3ccccc3c(NCCCCCCN(C)CCCl)c2c1`, the TGI came to 1.76 µM in test [1]; 2.54 µM in test [2]; 1.65 µM in test [3]; 0.845 µM in test [7]; 1.26 µM in [4]; 4.79 µM in test [5].
As to `O=c1cnn2c(n1)sc1ccc3ccccc3c12`, the concentration for total growth inhibition (TGI) in test [6], in test [1], in test [2], in [3], in test [7] and in test [4] was greater than 100 µM throughout. In test [5], this compound showed a TGI greater than 100 µM.
Regarding `COc1ccc2c(c1)OC[C@@H]1c3cc4c(cc3O[C@H]21)OCO4`, the TGI in [6], in test [1], in [2], in test [7], in test [4] and in test [5] was greater than 100 µM each time.
As for `O=C(NO)C12C3C4C1C1C2C3C41C(=O)NO` (stereo not given), the TGI in test [6], in test [1], in [2], in test [3], in [4] and in test [5] was greater than 100 µM each time.
Take `CCCN(CCC)c1ccc(/C=N/NC(=O)c2cccnc2)c(Cl)c1`: the GI50 was 2.59 µM in test [8]; 2.68 µM in [9]; 12.9 µM in test [10]; 5.78 µM in test [11]; 14.3 µM in test [12]. Besides, the TGI stood at 21.1 µM in test [8]; 12.4 µM in test [9]; 33.4 µM in test [10]; 48.4 µM in test [11]; 47.3 µM in test [12].
As to `CCCc1nc2c(C)cc(-c3nc4ccccc4n3C)cc2n1Cc1ccc(-c2ccccc2C(=O)O)cc1`, the GI50 in test [8] is 31.9 µM; in test [9], 33.9 µM; in [10], 52.3 µM; in test [11], 41.9 µM; in test [12], 38.1 µM. For the same compound, the TGI in [8], in test [9], in test [10], in test [11] and in test [12] was greater than 100 µM each time.
As for `Cc1ccc(C)c(-c2csc(Nc3ccc(C)c(C)c3)n2)c1`, the GI50 in test [8] was 35.9 µM; in test [9] it was greater than 100 µM; in test [10] it was greater than 100 µM; in [11] it was greater than 100 µM; in [12], 30.6 µM. The TGI in test [8], in [9], in test [10], in [11] and in test [12] was greater than 100 µM each time.
For the compound `NC1=N/C(=C2/CCNC(=O)c3[nH]c(Br)cc32)C(=O)N1`, the TGI was greater than 100 µM in test [6]; greater than 100 µM in test [8]; greater than 100 µM in test [2]; greater than 55.5 µM in [9]; 53.3 µM in [10]; greater than 100 µM in test [3]. Besides, the concentration for total growth inhibition (TGI) in test [7] is greater than 100 µM; in test [4] it was greater than 100 µM; in test [11], greater than 100 µM; in test [5], greater than 100 µM; in test [12] it was greater than 91.2 µM. Besides, in test [11], the GI50 is 11.9 µM and > 43.3 µM.
For `COc1ccc([N+](=O)[O-])c(S(=O)(=O)c2ccc(Cl)cc2)n1`, the GI50 is 2.24 µM in test [8]; 1.75 µM in test [9]; 2.75 µM in test [10]; 4.93 µM in test [11]; 13 µM in test [12]. The TGI in [8] is 7.29 µM; in test [9], 3.66 µM; in test [10] it was 8.97 µM; in test [11], greater than 100 µM; in test [12], 51.1 µM.
For the compound `CCOC(=O)c1sc(Nc2ccc(Cl)cc2)nc1C`, the GI50 is 1.64 µM in test [8]; 2.12 µM in test [9]; 1.48 µM in [10]; 1.78 µM in [11]; 2.22 µM in test [12]. Also, the TGI in test [8] worked out at 6.14 µM; in test [9], 4.75 µM; in [10], 3.29 µM; in [11], 4.08 µM; in test [12] it was 6.2 µM.
Regarding `COc1cc2nc(Nc3cccc(F)c3)nc(Nc3cc(C)[nH]n3)c2cc1OC`, the GI50 in test [8] was 1.73 µM; in test [9], 1.63 µM; in test [10], 1.68 µM; in [11], 1.6 µM; in test [12], 1.86 µM. In addition, the TGI in test [8] worked out at 3.83 µM; in [9] it was 3.16 µM; in test [10], 3.2 µM; in test [11] it was 3.64 µM; in test [12], 4.01 µM.
`Cc1cc(Cl)cc2c1NC(=O)C2(O)C(C)C(=O)c1ccc(Cl)cc1` (stereo not given): the TGI in test [6] is greater than 100 µM; in [1], greater than 100 µM; in test [2], greater than 100 µM; in [3], 26.2 µM; in [7], greater than 100 µM; in test [4] it was greater than 100 µM. In [5], this compound registered a TGI greater than 100 µM.
As for `NCCNC(=S)S`, the TGI was greater than 100 µM in test [8]; greater than 100 µM in test [9]; greater than 100 µM in test [10]; greater than 100 µM in test [11]; 43 µM in test [12].
For the compound `COc1ccc(-c2ccc(C3CC(c4ccc(Cl)cc4)=NN3)o2)c([N+](=O)[O-])c1` (stereo not given), the GI50 in test [8], in [9], in [10], in [11] and in test [12] was greater than 100 µM in each case. In addition, the TGI in [8], in test [9], in [10], in test [11] and in test [12] was greater than 100 µM in each case.
On to `C[C@@H]1C=C2C(=O)O[C@@H]3CC[C@H](C1)[C@]23O`, for which the GI50 in test [8] was 2.5 µM; in [9], 3.39 µM; in test [10], 4.4 µM; in [11], 11.9 µM; in [12], 12.7 µM. The TGI in test [8] was 13.3 µM; in test [9] it was 13.7 µM; in [10] it was 17.3 µM; in test [11], 95.8 µM; in [12], greater than 100 µM.
For `CO[C@@H]1[C@H](OC(=O)NC(=O)CCl)CC[C@]2(CO2)[C@H]1[C@@]1(C)O[C@@H]1CC=C(C)C`, the GI50 was 10.7 µM in [8]; 6.1 µM in [1]; 5.68 µM in test [9]; 16.8 µM in [10]; 1.17 µM in [3]; 27.9 µM in [11]. In addition, the TGI in [8] is 44.4 µM and 180 µM; in test [1], 20.9 µM; in [2], 41.5 µM; in test [9], 29.3 µM and 36.8 µM; in test [10], 37.6 µM and 59.1 µM; in test [3], 24.2 µM. Moreover, the total growth inhibition concentration (TGI) in test [11] is 62.4 µM and 111 µM; in [12], 63.7 µM and 157 µM; in test [13] it was 3.14 µM.
`O=C1CCC2(CC1)SCCCS2`: the TGI in test [1], in [2], in [3], in test [7] and in [4] was greater than 100 µM throughout.
With `CN(C)CCCc1c[nH]c2ccccc12`, the TGI in [8], in test [9], in test [10], in test [11] and in [12] was greater than 100 µM throughout.
Consider `CCCCCCCC/C=C\CCCCCCCC(=O)NCCN(CCN)C(=O)CCCCCCC/C=C\CCCCCCCC`, for which the TGI in test [6], in test [1], in [2], in test [3] and in test [4] was greater than 100 µM throughout.
Consider `CC(C)(C)c1ccc(C(O)c2ccc(C(C)(C)C)cc2)cc1`, for which the total growth inhibition concentration (TGI) came to 31.2 µM in test [6]; 29 µM in test [1]; 32.5 µM in [2]; 26.9 µM in test [3]; 28.4 µM in [7]; 25.9 µM in test [4].
In the case of `CC(C)OP(=O)(OC(C)C)C(=Nc1ccccc1)NNc1ccc([N+](=O)[O-])cc1`, the TGI was greater than 100 µM in test [1]; greater than 100 µM in test [2]; greater than 100 µM in test [3]; 61 µM in [7]; 59 µM in [4]; 43.1 µM in test [5].
On to `COc1ccc(C2=NN(C(C)=O)C(c3cn(-c4ccccc4)nc3-c3ccc(Cl)cc3)C2)cc1` (stereo not given), for which the GI50 is greater than 100 µM in test [8]; greater than 100 µM in test [9]; greater than 100 µM in [10]; greater than 100 µM in test [11]; 4.88 µM in [12]. Moreover, the TGI in test [8], in test [9], in test [10], in test [11] and in [12] was greater than 100 µM throughout.
With `C[C@H]1[C@H](C)CC[C@]2(C(=O)O)CC[C@]3(C)C(=CC[C@@H]4[C@@]5(C)C/C(=C/c6ccco6)C(=O)C(C)(C)[C@@H]5CC[C@]43C)[C@H]12`, the GI50 in test [8] was 3.17 µM; in [9], 6.58 µM; in test [10] it was 4.76 µM; in [11], 3.84 µM; in test [12], 11.6 µM. In addition, the TGI in [8] is 13 µM; in [9], 20.4 µM; in test [10] it was 18.9 µM; in test [11], 16.1 µM; in test [12], greater than 100 µM.
As to `CSc1nc2sc3cc(Cl)ccc3n2c(=N)c1C#N`, the GI50 in test [8] is 3.31 µM; in test [9], greater than 100 µM; in [10], 25.4 µM; in test [11], greater than 42.2 µM; in test [12], 2.89 µM. Moreover, the TGI is greater than 100 µM in test [8]; greater than 100 µM in test [9]; greater than 100 µM in [10]; greater than 100 µM in [11]; greater than 24.9 µM in test [12].
Take `Nc1c(C(=O)Nc2ccccc2Cl)sc2nc3c(cc12)CCCCCC3`: the GI50 in test [8] was 0.896 µM; in test [9], 0.275 µM; in test [10], 3.64 µM; in test [11], 2.82 µM; in [12], 2.9 µM. Also, the TGI in test [8] worked out at 16.7 µM; in test [9] it was 1.1 µM; in [10] it was 29.1 µM; in test [11], 25.4 µM; in test [12], 14.6 µM.
`Cc1ccc(S(=O)(=O)N2CCc3ccc(O)c4c3C2Cc2cc(Cl)ccc2-4)cc1` (stereo not given): the GI50 was 1.08 µM in test [8]; 0.635 µM in test [9]; 1.95 µM in [10]; 0.819 µM in [11]; 0.889 µM in [12]. Besides, the TGI in test [8] was determined as 6.28 µM; in [9], 1.45 µM; in test [10] it was 9.66 µM; in test [11] it was 2.27 µM; in [12], 6.68 µM.
On to `COc1ccc(-c2nc(-c3nc4ccc(OC)cc4[nH]3)cc3c2[nH]c2ccccc23)cc1`, for which the GI50 in test [8] is 2.55 µM; in [9], 4.31 µM; in test [10], 7.1 µM; in test [11], 2.1 µM; in [12], 2.85 µM. The total growth inhibition concentration (TGI) in test [8], in test [9], in [10], in test [11] and in test [12] was greater than 100 µM in each case.

The record behind these values is PubChem BioAssay (NCI).
